A short description of series [1]: AUC in haloperidol-induced Sprague-Dawley rat cataleptic model at 10 mg/kg, po administered for 1 hr. Format: ADME, organism-based. The following applies: in vivo.
Series [2] has as its target T1, Cytochrome P450 3A4 (Homo sapiens, UniProt P08684). In words: Time dependent inhibition of CYP3A4 (unknown origin). Format: ADME.
The target of another series is T2, Adenosine receptor A1 (Homo sapiens, UniProt P30542).
T2 sequence (P30542 whole entry): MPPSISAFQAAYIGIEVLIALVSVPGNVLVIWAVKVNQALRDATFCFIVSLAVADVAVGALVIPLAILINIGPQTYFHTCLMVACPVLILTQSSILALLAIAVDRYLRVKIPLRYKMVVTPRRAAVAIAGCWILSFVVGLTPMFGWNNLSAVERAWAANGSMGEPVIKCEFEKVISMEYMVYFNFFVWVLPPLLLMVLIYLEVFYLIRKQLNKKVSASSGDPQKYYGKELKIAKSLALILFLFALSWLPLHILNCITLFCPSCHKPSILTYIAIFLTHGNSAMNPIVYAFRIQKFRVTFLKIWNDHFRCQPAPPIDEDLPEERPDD
In words: Displacement of [3H]DPCPX from human adenosine A1 receptor expressed in CHO cell membranes after 60 mins by microplate scintillation counting analysis. A general note: Displacement assays read how much labelled ligand stays bound in the presence of the test substance.

In series [3] the test system is Rattus norvegicus. Put plainly: Anti-cataleptic activity in Sprague-Dawley rat assessed as inhibition of haloperidol-induced catalepsy at 10 mg/kg, po administered for 1 hr. The series is classed as functional.
Series [4] relates to Rattus norvegicus. In words: Anti-cataleptic activity in Sprague-Dawley rat assessed as inhibition of haloperidol-induced catalepsy at 1 mg/kg, po administered for 1 hr. The series is classed as functional.
Series [5] concerns the target Adenosine receptor A2a (Homo sapiens, UniProt P29274). In words: Displacement of [3H]SCH-58261 from human adenosine A2A receptor expressed in HEK cell membranes after 60 mins by microplate scintillation counting analysis. Further details: species or system HEK293; call rule not given here.
The target of series [6] is Adenosine receptor A2a (Rattus norvegicus, UniProt P30543). Put plainly: Binding affinity to rat A2A adenosine receptor. Conditions: read-out: Ki.
Chain of Adenosine receptor A2a (Rattus norvegicus, UniProt P30543) (P30543 whole entry): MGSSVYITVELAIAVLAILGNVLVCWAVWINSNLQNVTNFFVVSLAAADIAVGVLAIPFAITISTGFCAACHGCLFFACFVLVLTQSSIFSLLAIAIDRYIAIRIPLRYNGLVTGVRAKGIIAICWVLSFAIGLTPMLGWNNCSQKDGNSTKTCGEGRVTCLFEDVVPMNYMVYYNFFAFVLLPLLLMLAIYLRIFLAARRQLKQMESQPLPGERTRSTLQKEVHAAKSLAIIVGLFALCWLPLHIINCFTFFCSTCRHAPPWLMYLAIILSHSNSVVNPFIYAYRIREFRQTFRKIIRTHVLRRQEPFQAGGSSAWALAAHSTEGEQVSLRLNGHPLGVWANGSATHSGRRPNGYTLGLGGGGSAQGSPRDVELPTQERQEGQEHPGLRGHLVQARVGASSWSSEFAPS
The nature of series [7]: Plasma protein binding in rat. The series is classed as ADME, cell-free. The following applies: read-out: PPB (converted).
Series [8] can be described thus: Half life in haloperidol-induced Sprague-Dawley rat cataleptic model at 1 to 30 mg/kg, po administered for 1 to 4 hrs. The series is classed as ADME, organism-based. The following applies: in vivo.
Series [9] in a line: Permeability of the compound. Format: ADME. The following applies: not told; read-out: permeability.
The nature of series [10]: Clearance in human hepatocytes assessed per million cells. Format: ADME, cell-based, Hepatocyte. The following applies: read-out: CLH.
The target in the next series is T3, Adenosine receptor A2b (Homo sapiens, UniProt P29275).
T3 sequence (P29275 whole entry): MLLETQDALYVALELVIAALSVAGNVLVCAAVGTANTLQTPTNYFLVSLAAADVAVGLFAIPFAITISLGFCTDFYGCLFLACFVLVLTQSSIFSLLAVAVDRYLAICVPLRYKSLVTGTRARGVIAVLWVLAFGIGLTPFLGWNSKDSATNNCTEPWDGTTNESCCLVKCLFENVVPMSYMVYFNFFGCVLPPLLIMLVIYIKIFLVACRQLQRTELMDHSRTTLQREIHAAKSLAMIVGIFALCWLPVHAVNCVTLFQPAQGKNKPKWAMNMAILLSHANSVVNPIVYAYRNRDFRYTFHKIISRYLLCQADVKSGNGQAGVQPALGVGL
Put plainly: Binding affinity to human adenosine A2B receptor.

Series [11] is described as follows: Plasma protein binding in human. Format: ADME, cell-free. Conditions: read-out: PPB (converted).
In series [12] the target is T1, Cytochrome P450 3A4. Put plainly: Time dependent inhibition of CYP3A4 (unknown origin) at 30 uM relative to control. The series is classed as ADME.
Series [13] is described as follows: Solubility of compound at pH 7. Format: physicochemical. The following applies: buffer.
Series [14] is described as follows: Drug uptake in brain of haloperidol-induced Sprague-Dawley rat cataleptic model after 1 hr. The series is classed as ADME, tissue-based. Conditions: read-out: Drug uptake.
For another series, the target named is T4, Adenosine receptor A3 (Homo sapiens, UniProt P0DMS8).
T4 sequence (P0DMS8 whole entry): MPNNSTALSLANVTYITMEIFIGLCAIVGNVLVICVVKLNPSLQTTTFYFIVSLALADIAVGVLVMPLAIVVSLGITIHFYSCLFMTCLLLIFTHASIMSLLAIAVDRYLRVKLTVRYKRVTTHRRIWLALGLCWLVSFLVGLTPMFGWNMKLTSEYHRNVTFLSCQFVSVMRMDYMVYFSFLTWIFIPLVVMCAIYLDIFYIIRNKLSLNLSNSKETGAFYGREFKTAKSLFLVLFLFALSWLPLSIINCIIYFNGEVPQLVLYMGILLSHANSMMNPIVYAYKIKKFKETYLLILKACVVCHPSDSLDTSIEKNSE
Put plainly: Binding affinity to human adenosine A3 receptor.

Series [15] has as its system Rattus norvegicus. In words: Anti-cataleptic activity in Sprague-Dawley rat assessed as inhibition of haloperidol-induced catalepsy at 30 mg/kg, po administered for 1 hr. Format: functional.
Series [16] in a line: Plasma concentration in haloperidol-induced Sprague-Dawley rat cataleptic model after 1 hr. The series is classed as ADME.
Series [17] is described as follows: Clearance in rat hepatocytes assessed per million cells. Format: ADME, cell-based, Hepatocyte. Conditions: read-out: CLH.

Two compounds from ChEMBL document CHEMBL3763049, “Discovery of aminoquinazoline derivatives as human A(2A) adenosine receptor antagonists” (Bioorg Med Chem Lett, 2016) can be followed below.

Converted amounts (≈) assume the structure as drawn.

T1 sequence (P08684 whole entry): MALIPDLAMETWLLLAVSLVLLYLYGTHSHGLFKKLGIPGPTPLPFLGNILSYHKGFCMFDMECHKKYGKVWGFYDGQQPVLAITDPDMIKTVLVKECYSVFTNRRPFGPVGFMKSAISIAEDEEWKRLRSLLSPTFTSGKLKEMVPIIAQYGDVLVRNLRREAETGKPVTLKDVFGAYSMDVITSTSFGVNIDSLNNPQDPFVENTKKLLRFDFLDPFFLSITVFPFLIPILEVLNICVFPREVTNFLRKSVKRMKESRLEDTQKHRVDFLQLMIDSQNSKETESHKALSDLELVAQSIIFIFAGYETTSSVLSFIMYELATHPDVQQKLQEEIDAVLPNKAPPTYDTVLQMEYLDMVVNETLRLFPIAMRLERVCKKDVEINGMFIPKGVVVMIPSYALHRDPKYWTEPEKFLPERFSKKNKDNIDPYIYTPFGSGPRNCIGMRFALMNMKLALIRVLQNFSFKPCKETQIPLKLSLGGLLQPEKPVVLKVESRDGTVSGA
Chain of Adenosine receptor A2a (Homo sapiens, UniProt P29274) (P29274 whole entry): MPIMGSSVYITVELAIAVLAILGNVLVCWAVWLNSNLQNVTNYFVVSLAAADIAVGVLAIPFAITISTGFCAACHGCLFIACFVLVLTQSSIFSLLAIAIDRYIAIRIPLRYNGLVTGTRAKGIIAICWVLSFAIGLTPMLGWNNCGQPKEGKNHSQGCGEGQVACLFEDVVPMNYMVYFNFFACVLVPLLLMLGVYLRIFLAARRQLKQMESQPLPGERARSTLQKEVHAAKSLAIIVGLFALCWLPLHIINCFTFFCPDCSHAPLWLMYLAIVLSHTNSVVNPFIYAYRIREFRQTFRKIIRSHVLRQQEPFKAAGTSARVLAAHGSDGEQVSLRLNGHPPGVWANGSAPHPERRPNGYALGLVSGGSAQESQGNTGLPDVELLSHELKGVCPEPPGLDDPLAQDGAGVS

The term AUC denotes the area under the concentration-time curve, a measure of exposure. Low readings indicate low exposure, high ones high exposure. For orientation: Ki means the dissociation constant of the complex between target and ligand, obtained from inhibition or displacement. As usually defined, the inhibition in vivo is how much of the control response was suppressed. On to `Nc1nc(C(=O)NCc2cccc3cccnc23)c2cccc(F)c2n1`, for which the area under the curve (AUC) at 1 h in series [1] came to 2.4 µM·h. Moreover, the TDI result at Cytochrome P450 3A4 [2] is “Not Active”. Moreover, the inhibition constant Ki on Adenosine receptor A1 was determined as 12 nM; on Adenosine receptor A2a [5], 0.5 nM; at Adenosine receptor A2a [6], 1.3 nM. The inhibition in vivo at 10 mg/kg in the series on Rattus norvegicus [3] is 74%. For the same compound, the inhibition in vivo at 1 mg/kg in the series with Rattus norvegicus [4] was 30%.
By half-life is commonly meant the time in which the quantity being followed falls by half. As a reminder, the solubility is the dissolved amount per volume that the medium holds. A lower solubility goes with a poorly soluble substance. For `Nc1nc(C(=O)NCc2cccc3cccnc23)c2ccccc2n1`, the values for the fraction unbound in series [7] and in series [11] were 0.045 and 0.036, respectively. The AUC at 1 h in series [1] was 1.6 µM·h. The half-life in [8] is 30 min. Moreover, the Papp in [9] stood at 40 ×10⁻⁶ cm/s. The hepatocyte CLint in series [10] stood at 34.8 µL/min/1e6 cells; in series [17], 12.8 µL/min/1e6 cells. The inhibition constant (Ki) at Adenosine receptor A2b was 1470 nM; on Adenosine receptor A1, 90 nM; at Adenosine receptor A3, 985 nM; on Adenosine receptor A2a [5] it was 1.1 nM; at Adenosine receptor A2a [6] it was 11 nM. Besides, the “fold change (FC)” value at Cytochrome P450 3A4 [12] was determined as 3. The solubility in series [13] was determined as 124 µM (≈ 40.8 µg/mL). For the same compound, the inhibition in vivo at 10 mg/kg with Rattus norvegicus [3] was 35%. The values for the concentration at 1 h in series [14] and in series [16] were 3.1 µM and 4.2 µM, respectively. For the same compound, the inhibition in vivo at 30 mg/kg with Rattus norvegicus [15] was 61%.
